Laboratory results reported in patent publication US20130267551A1, “SUBSTITUTED HYDROGENATED THIENO-PYRROLO[3,2-C]PYRIDINE, LIGANDS, A PHARMACEUTICAL COMPOSITION AND A METHOD FOR USING THE ABOVE” (ALLA CHEM, LLC, priority 2010, published 2013).
Where a name gives a salt, the structure may show the parent alone.

How the values were obtained:
Serotoninergic 5-HT1B = experiment: competitive radioligand binding, Serotoninergic 5-HT1B; conditions: compound concentration of 1 μM
Experimental: (§1) Profiles of pharmacological activity of thieno-pyrrolo[3,2-c]pyridines of the general formula 1. Biological activity test of compounds of the general formula 1 was carried out in the setting of competitive radioligand binding [I. Okun, S. Tkachenko, A. Khvat, et al., Current Alzheimer Research, 7(2), 97-112 (2010)], using a wide range of therapeutic targets including G-protein coupled receptors (GPCR), ion channels and neuromediator transporters. The tested activity was determined by quantitative measurement of radio-labelled ligand displacement by tested compounds of the general formula 1 at their concentration of 1 μM.

Adrenergic α1D = target: T1, Adrenergic α1D (Homo sapiens, UniProt P25100); experiment: competitive radioligand binding, Adrenergic α1D; conditions: compound concentration of 1 μM
T1 sequence (P25100 1-572): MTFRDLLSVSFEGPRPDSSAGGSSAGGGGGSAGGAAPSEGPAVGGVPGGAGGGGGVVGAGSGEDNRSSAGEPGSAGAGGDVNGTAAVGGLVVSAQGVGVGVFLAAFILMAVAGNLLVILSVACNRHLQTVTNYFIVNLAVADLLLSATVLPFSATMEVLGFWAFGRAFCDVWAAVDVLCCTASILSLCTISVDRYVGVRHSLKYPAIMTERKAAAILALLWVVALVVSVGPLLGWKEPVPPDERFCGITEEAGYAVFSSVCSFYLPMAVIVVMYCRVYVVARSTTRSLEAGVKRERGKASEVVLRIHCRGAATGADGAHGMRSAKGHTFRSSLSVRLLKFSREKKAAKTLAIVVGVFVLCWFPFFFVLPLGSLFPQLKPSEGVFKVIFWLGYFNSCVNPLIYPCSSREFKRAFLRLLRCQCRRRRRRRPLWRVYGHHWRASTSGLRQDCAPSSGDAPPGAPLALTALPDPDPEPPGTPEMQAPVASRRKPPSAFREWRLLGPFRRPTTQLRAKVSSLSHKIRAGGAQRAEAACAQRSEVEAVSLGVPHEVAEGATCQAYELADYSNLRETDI
Experimental: as §1

Adrenergic α1B = experiment: competitive radioligand binding, Adrenergic α1B; conditions: compound concentration of 1 μM
Experimental: as §1

Histaminergic H3 = Histaminergic H3 (Homo sapiens, UniProt Q9Y5N1); experiment: competitive radioligand binding, Histaminergic H3; conditions: compound concentration of 1 μM; in % (unit assumed)
Experimental: as §1

Dopaminergic D4.2 = target: T2, Dopaminergic D4.2 (Homo sapiens, UniProt P21917, DEL265-296); experiment: competitive radioligand binding, Dopaminergic D4.2; conditions: compound concentration of 1 μM
T2 sequence (P21917 with tags, fused parts or gaps DEL265-296): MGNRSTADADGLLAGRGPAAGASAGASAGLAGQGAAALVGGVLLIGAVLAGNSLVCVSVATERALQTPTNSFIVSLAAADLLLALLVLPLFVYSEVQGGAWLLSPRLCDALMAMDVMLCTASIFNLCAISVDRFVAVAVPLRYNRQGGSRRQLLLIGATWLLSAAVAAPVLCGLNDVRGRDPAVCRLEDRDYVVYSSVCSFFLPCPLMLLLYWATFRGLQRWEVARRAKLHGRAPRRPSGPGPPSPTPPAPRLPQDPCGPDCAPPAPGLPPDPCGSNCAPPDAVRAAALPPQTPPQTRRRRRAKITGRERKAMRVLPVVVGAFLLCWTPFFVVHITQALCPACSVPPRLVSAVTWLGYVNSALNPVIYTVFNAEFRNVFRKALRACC
Experimental: as §1

Dopaminergic D3 = Dopaminergic D3 (Homo sapiens, UniProt P35462); experiment: competitive radioligand binding, Dopaminergic D3; conditions: compound concentration of 1 μM
Experimental: as §1

Serotoninergic 5-HT7 = Serotoninergic 5-HT7 (Homo sapiens, UniProt P34969); experiment: competitive radioligand binding, Serotoninergic 5-HT7; conditions: compound concentration of 1 μM
Experimental: as §1

Adrenergic α2A = target: T3, Adrenergic α2A (Homo sapiens, UniProt P08913); experiment: competitive radioligand binding, Adrenergic α2A; conditions: compound concentration of 1 μM
T3 sequence (P08913 1-465): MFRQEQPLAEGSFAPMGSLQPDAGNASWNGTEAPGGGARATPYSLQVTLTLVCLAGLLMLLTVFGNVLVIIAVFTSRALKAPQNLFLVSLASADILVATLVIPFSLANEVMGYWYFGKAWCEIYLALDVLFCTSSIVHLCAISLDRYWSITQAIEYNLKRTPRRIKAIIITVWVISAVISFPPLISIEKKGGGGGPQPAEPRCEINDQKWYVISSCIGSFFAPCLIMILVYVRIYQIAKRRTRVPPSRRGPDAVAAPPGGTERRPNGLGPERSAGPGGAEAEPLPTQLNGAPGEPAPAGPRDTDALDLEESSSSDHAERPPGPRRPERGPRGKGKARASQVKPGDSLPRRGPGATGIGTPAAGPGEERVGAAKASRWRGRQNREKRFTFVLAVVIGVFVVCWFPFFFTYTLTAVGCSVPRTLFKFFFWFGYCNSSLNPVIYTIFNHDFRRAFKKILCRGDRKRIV
Experimental: as §1

Adrenergic α1A = experiment: competitive radioligand binding, Adrenergic α1A; conditions: compound concentration of 1 μM
Experimental: as §1

Dopaminergic D1 = Dopaminergic D1 (Homo sapiens, UniProt P21728); experiment: competitive radioligand binding, Dopaminergic D1; conditions: compound concentration of 1 μM
Experimental: as §1

Dopaminergic D2L = Dopaminergic D2L (Homo sapiens, UniProt P14416); experiment: competitive radioligand binding, Dopaminergic D2L; conditions: compound concentration of 1 μM
Experimental: as §1

Serotoninergic 5-HT2C = target: T4, Serotoninergic 5-HT2C (Homo sapiens, UniProt P28335); experiment: competitive radioligand binding, Serotoninergic 5-HT2C; conditions: compound concentration of 1 μM
T4 sequence (P28335 33-458): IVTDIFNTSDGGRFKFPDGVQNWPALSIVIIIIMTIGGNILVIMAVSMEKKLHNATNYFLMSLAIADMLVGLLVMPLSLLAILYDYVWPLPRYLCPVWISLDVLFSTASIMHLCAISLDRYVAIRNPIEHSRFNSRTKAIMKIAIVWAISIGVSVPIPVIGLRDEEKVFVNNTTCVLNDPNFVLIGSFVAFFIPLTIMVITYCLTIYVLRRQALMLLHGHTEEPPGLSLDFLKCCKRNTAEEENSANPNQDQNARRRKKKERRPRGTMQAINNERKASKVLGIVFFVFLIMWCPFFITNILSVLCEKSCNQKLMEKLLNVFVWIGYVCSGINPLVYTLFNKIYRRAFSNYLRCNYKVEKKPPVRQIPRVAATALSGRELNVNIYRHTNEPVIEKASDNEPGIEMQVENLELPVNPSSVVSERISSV
Experimental: as §1

[1] = tested on: Therapeutic targets (Adrenergic, Dopaminergic, Histaminergic, Serotoninergic); experiment: Profiles of pharmacological activity in competitive radioligand binding (whole panel); conditions: 1 μM, grades not defined
Experimental: as §1

Histaminergic H2 = Histaminergic H2 (Homo sapiens, UniProt P25021); experiment: competitive radioligand binding, Histaminergic H2; conditions: compound concentration of 1 μM
Experimental: as §1

Histaminergic H1 = Histaminergic H1 (Homo sapiens, UniProt P35367); experiment: competitive radioligand binding, Histaminergic H1; conditions: compound concentration of 1 μM
Experimental: as §1

Serotoninergic 5-HT2B = Serotoninergic 5-HT2B (Homo sapiens, UniProt P41595); experiment: competitive radioligand binding, Serotoninergic 5-HT2B; conditions: compound concentration of 1 μM
Experimental: as §1

Dopaminergic D2S = Dopaminergic D2S (Homo sapiens, UniProt P14416); experiment: competitive radioligand binding, Dopaminergic D2S; conditions: compound concentration of 1 μM
Experimental: as §1

Serotoninergic 5-HT2A = Serotoninergic 5-HT2A (Homo sapiens, UniProt P28223); experiment: competitive radioligand binding, Serotoninergic 5-HT2A; conditions: compound concentration of 1 μM
Experimental: as §1

Serotoninergic 5-HT6 = Serotoninergic 5-HT6 (Homo sapiens, UniProt P50406); experiment: competitive radioligand binding, Serotoninergic 5-HT6; conditions: compound concentration of 1 μM
Experimental: as §1

Serotoninergic 5-HT1A = target: T5, Serotoninergic 5-HT1A (Homo sapiens, UniProt P08908); experiment: competitive radioligand binding, Serotoninergic 5-HT1A; conditions: compound concentration of 1 μM
T5 sequence (P08908 1-422): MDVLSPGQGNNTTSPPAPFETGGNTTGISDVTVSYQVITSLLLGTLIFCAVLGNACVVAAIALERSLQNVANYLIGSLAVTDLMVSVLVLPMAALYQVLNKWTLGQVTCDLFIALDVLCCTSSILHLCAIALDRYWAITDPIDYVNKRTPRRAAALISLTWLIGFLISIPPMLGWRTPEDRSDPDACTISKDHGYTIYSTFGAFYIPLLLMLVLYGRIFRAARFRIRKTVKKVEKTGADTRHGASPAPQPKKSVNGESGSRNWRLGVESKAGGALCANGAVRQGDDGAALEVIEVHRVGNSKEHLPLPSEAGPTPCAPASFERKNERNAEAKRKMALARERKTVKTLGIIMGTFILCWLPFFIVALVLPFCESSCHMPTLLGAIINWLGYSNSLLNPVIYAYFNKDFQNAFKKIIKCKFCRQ
Experimental: as §1

Chain of Serotoninergic 5-HT2B (P41595 whole entry): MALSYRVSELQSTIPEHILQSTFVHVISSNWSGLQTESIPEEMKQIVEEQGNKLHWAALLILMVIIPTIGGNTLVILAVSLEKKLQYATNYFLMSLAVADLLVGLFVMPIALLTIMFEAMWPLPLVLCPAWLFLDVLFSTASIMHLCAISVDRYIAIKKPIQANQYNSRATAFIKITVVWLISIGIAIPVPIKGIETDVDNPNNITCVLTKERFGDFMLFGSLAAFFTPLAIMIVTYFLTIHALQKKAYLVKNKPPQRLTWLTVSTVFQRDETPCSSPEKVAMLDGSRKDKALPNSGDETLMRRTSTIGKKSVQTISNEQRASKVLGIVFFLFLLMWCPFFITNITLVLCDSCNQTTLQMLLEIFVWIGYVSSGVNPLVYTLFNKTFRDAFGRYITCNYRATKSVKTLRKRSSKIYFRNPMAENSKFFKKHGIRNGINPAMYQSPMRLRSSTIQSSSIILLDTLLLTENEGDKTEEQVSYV
Chain of Serotoninergic 5-HT7 (P34969 whole entry): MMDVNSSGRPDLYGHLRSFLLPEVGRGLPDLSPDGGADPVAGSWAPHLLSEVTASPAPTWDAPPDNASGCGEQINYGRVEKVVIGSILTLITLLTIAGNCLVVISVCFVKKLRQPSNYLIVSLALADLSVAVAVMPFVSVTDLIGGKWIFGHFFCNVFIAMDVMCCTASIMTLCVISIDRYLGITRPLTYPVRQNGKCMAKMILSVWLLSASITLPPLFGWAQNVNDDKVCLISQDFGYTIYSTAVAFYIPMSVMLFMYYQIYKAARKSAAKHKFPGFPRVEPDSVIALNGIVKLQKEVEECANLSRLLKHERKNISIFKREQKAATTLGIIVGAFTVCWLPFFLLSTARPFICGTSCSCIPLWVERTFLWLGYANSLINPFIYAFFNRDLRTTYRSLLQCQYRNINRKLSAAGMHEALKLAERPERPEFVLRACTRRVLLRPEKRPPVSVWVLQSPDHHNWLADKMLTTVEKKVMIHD
Chain of Serotoninergic 5-HT2A (P28223 whole entry): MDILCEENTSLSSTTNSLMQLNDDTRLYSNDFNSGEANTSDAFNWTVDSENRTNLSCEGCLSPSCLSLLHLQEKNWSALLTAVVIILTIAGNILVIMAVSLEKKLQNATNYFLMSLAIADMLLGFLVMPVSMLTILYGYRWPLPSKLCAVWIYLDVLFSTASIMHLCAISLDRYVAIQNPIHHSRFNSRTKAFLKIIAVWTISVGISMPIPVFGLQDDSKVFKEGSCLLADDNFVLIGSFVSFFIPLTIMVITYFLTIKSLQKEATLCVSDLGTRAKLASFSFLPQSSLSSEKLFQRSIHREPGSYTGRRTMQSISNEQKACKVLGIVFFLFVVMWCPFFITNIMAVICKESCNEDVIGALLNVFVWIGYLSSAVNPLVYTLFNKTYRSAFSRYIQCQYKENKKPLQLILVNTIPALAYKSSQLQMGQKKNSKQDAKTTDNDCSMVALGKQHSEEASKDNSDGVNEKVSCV
Chain of Histaminergic H3 (Q9Y5N1 whole entry): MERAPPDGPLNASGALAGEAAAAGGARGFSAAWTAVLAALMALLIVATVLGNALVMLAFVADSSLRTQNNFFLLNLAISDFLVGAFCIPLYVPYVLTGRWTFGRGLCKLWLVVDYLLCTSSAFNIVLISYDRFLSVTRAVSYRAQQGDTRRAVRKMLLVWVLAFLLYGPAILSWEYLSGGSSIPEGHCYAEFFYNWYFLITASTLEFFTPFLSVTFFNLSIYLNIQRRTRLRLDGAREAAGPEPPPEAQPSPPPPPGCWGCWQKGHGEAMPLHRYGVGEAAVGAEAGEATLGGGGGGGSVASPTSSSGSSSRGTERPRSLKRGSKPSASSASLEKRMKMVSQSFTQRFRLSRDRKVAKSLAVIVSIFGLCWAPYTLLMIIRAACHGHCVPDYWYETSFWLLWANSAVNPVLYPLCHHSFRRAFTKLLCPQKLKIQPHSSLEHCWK
Chain of Dopaminergic D2L (P14416 whole entry): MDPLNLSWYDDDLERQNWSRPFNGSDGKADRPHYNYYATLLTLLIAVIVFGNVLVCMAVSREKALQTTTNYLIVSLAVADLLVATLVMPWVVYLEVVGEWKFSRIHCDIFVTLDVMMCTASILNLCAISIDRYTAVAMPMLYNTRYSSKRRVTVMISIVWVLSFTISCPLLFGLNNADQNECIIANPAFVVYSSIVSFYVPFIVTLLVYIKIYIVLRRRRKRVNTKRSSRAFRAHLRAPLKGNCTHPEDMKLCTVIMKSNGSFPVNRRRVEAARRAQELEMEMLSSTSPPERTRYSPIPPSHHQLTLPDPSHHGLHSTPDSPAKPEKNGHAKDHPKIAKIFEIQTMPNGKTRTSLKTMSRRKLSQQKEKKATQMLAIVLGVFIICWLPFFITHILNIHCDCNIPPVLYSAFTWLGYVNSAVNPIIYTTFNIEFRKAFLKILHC
Chain of Dopaminergic D1 (P21728 whole entry): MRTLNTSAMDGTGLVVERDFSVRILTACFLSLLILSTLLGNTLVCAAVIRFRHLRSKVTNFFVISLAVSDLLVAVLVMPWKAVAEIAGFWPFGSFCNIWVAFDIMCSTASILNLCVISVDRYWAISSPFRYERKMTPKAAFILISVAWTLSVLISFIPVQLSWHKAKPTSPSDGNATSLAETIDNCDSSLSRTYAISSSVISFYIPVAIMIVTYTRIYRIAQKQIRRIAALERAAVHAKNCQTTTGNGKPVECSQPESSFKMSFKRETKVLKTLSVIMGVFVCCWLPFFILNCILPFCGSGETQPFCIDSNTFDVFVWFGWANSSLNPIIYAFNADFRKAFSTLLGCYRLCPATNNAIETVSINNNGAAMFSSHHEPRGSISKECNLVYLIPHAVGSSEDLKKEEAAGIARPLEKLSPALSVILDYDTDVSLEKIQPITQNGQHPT
Chain of Dopaminergic D2S (P14416 1-414 isoform P14416-2): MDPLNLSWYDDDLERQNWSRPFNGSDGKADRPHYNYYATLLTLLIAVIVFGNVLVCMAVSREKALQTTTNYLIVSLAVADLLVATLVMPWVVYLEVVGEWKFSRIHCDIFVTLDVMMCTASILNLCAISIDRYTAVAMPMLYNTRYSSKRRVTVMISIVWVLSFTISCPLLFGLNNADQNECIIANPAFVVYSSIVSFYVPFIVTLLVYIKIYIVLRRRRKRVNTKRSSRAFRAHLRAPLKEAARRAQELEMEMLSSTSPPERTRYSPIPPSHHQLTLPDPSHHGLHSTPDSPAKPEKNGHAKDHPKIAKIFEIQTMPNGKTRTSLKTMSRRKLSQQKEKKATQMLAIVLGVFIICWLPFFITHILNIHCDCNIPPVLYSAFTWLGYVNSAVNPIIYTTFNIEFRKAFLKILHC
Chain of Histaminergic H1 (P35367 whole entry): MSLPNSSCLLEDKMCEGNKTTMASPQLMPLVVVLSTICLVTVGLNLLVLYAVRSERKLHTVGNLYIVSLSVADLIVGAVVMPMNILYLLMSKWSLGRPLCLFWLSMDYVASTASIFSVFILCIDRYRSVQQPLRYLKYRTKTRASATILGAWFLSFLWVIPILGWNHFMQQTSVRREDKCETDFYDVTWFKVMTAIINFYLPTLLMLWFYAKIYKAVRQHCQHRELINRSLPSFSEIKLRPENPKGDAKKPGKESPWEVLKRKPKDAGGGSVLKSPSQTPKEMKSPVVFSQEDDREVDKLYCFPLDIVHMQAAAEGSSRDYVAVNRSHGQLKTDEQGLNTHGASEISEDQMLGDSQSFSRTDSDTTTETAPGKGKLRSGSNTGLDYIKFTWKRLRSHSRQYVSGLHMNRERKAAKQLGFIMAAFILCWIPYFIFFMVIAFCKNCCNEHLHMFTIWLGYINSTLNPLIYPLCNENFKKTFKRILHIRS
Chain of Histaminergic H2 (P25021 whole entry): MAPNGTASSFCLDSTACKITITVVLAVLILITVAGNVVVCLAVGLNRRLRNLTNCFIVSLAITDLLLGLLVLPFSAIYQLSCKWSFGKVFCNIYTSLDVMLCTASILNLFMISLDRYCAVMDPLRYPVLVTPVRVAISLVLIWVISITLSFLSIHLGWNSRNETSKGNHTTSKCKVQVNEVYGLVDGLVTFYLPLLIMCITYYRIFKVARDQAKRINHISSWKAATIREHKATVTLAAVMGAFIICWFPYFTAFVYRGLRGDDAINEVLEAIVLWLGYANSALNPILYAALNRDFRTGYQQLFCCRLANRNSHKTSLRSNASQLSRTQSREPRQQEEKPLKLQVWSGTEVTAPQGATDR
Chain of Dopaminergic D3 (P35462 whole entry): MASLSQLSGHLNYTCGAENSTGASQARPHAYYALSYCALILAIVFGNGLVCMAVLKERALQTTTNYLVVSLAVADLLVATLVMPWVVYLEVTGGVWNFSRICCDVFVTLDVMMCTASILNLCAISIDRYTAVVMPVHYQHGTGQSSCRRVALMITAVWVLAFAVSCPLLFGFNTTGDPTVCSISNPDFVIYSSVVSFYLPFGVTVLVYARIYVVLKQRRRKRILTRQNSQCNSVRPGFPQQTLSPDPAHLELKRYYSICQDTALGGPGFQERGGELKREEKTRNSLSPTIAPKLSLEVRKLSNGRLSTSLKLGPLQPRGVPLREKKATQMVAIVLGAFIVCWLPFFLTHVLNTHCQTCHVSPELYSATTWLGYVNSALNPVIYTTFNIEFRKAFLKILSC
Chain of Serotoninergic 5-HT6 (P50406 whole entry): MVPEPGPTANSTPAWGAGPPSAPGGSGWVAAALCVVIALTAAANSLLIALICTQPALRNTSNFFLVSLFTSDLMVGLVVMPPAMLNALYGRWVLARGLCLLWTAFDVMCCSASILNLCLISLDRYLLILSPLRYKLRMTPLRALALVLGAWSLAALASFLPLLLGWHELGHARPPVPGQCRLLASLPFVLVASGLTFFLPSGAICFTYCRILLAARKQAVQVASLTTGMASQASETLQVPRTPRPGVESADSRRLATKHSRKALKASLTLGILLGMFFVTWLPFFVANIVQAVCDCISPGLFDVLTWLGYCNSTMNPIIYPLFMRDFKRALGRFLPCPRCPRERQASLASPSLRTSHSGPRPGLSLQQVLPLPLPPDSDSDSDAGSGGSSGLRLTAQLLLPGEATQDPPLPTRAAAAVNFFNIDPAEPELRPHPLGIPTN

Compound	radio-labelled ligand displacement, Serotoninergic 5-HT1B (Serotoninergic 5-HT1B)	radio-labelled ligand displacement, Adrenergic α1D (Adrenergic α1D)	radio-labelled ligand displacement, Adrenergic α1B (Adrenergic α1B)	radio-labelled ligand displacement, Histaminergic H3 (Histaminergic H3)	radio-labelled ligand displacement, Dopaminergic D4.2 (Dopaminergic D4.2)	radio-labelled ligand displacement, Dopaminergic D3 (Dopaminergic D3)	radio-labelled ligand displacement, Serotoninergic 5-HT7 (Serotoninergic 5-HT7)	radio-labelled ligand displacement, Adrenergic α2A (Adrenergic α2A)	radio-labelled ligand displacement, Adrenergic α1A (Adrenergic α1A)	radio-labelled ligand displacement, Dopaminergic D1 (Dopaminergic D1)	radio-labelled ligand displacement, Dopaminergic D2L (Dopaminergic D2L)	radio-labelled ligand displacement, Serotoninergic 5-HT2C (Serotoninergic 5-HT2C)	grade of the activity profile (poor / satisfactory / good) [1]	radio-labelled ligand displacement, Histaminergic H2 (Histaminergic H2)	radio-labelled ligand displacement, Histaminergic H1 (Histaminergic H1)	radio-labelled ligand displacement, Serotoninergic 5-HT2B (Serotoninergic 5-HT2B)	radio-labelled ligand displacement, Dopaminergic D2S (Dopaminergic D2S)	radio-labelled ligand displacement, Serotoninergic 5-HT2A (Serotoninergic 5-HT2A)	radio-labelled ligand displacement, Serotoninergic 5-HT6 (Serotoninergic 5-HT6)	radio-labelled ligand displacement, Serotoninergic 5-HT1A (Serotoninergic 5-HT1A)
Cc1cc2c3c(n(CCc4ccc(Cl)cc4)c2s1)C(C)CN(C)C3 (stereo not shown) [3.6(4)•HCl, 2,5,7-trimethyl-8-(4-chlorophenethyl)-4,5,6,7-tetrahydro-5H-thieno[3′,2′:4,5]pyrrolo[3,2-c]pyridine]	41%	89%	91%	8	54%	63%	99%	93%	89%	56%	45%	96%	good	63%	95%	78%	72%	97%	99%	29%
Cc1cc2c3c(n(CC(O)c4ccccc4)c2s1)CCN(C)C3.Cl (stereo not shown) [3.7(1)•HCl, 2-(2,5-Dimethyl-4,5,6,7-tetrahydro-5H-thieno[3′,2′:4,5]pyrrolo[3,2-c]pyridin-8-yl)-1-phenylethanol hydrochloride]	30%	86%	89%	−3	33%	23%	96%	91%	79%	47%	35%	94%	–	57%	89%	63%	29%	97%	99%	18%
Cc1ccc(C=CCn2c3c(c4cc(C)sc42)CN(C)CC3)cc1 [3.11(2)•HCl, 2,5-dimethyl-8-[3-(p-tolyl)allyl]-4,5,6,7-tetrahydro-5H-thieno[3′,2′:4,5]pyrrolo[3,2-c]pyridine]	39%	42%	60%	7	13%	49%	85%	53%	55%	10%	50%	93%	satisfactory	50%	81%	89%	61%	93%	95%	21%
Cc1csc2c1c1c(n2CCCc2ccccc2)CCN(C)C1 [3.12(1)•HCl]	54%	92%	99%	11	73%	75%	98%	101%	98%	57%	82%	97%	good	99%	98%	91%	89%	99%	101%	43%
